Measurements as given in BindingDB's records for doi:10.1021/jm000496v (Welfide, 2001).

Molecular target: Chymotrypsinogen A (Bos taurus) (UniProt P00766)
Experiment: Inhibitory activity against alpha chymotrypsin from bovine pancreas.

Structure (SMILES): Nc1cnc(-c2ccc(F)cc2)n(CC(=O)NC(Cc2ccccc2)C(=O)c2nc3cc(-c4ccccc4)ccc3o2)c1=O (stereo unspecified) [2-[5-Amino-2-(4-fluoro-phenyl)-6-oxo-6H-pyrimidin-1-yl]-N-[1-benzyl-2-oxo-2-(5-phenyl-benzooxazol-2-yl)-ethyl]-acetamide]
- Ki: 1.63 µM
